“And” between values parts separate entries of the source, which are not always exact repeats. Equal entries are not always repeated.
Columns and labels:
Oncorhynchus mykiss = conditions: mortality
Neomysis kadiakensis = conditions: chronic/long-term; duration: 28 days; reproduction
Apis mellifera = conditions: acute, duration: 96 hours, mortality
Rattus norvegicus = conditions: for NOAEL: reproduction developmental
Daphnia magna = conditions: chronic/long-term; duration: 21 days; reproduction
Mus musculus = conditions: acute, oral, mortality
Chironomus tentans = conditions: acute; duration: 10 days; mortality
Colinus virginianus = conditions: for LD50: acute, oral, mortality
Canidae = conditions: subchronic; duration: 3 months; oral; gavage; Dog Other; organ weight
Bibionidae = conditions: chronic/long-term; duration: 28 days; development
Danio rerio = conditions: chronic; duration: 148 days
Cyprinodon variegatus = conditions: chronic/long-term; duration: 41 days; mortality

`N#Cc1ccc(CC(=NNC(=O)Nc2ccc(OC(F)(F)F)cc2)c2cccc(C(F)(F)F)c2)cc1` (mixture of isomers) [Metaflumizone] showed an LC50 (Oncorhynchus mykiss; acute, duration: 96 hours) greater than 0.228 mg/L, an NOEC (Oncorhynchus mykiss; chronic/long-term, duration: 93 days) of 1.47 µg/L and an NOEC (Neomysis kadiakensis) of 0.654 µg/L. The LD50 (Apis mellifera; dermal) was 1.65 µg/piece, the LD50 (Apis mellifera; oral, unspecified) was 2.43 µg/piece and the LD50 (Rattus norvegicus; acute, oral, mortality) was greater than 5000 mg/kg-day. For the same compound, the NOAEL (Rattus norvegicus; body weight) was 40 mg/kg-day, the NOAEL (Rattus norvegicus; reproduction) was 20 mg/kg-day and the NOEC (Daphnia magna) was 1.47 µg/L. For the same compound, the LD50 (Mus musculus; duration: 7 days, diet) was 101 mg/kg-day, the LD50 (Mus musculus) was greater than 5000 mg/kg-day and the LC50 (Chironomus tentans) was 1800 µg/kg. It also gave an LD50 (Colinus virginianus; diet) of 306 mg/kg-day, an LD50 (Colinus virginianus) greater than 2020 mg/kg-day and an NOEL (Colinus virginianus; reproduction developmental, reproduction) of 0.53 mg/kg-day. For the same compound, the NOAEL (Canidae) was 6 mg/kg-day, the LD50 (Anas platyrhynchos; acute, oral, unspecified, mortality) was greater than 2020 mg/kg-day and the NOEL (Anas platyrhynchos; reproductive, reproduction) was < 4.4 mg/kg-day and 1.8 mg/kg-day. It also gave an NOEC (Bibionidae) of 2.56 µg/L, an NOEC (Danio rerio) of 0.015 mg/L and an NOEC (Cyprinodon variegatus) of 1.15 µg/L. The LC50 (Tagia sp.; acute, duration: 14 days, mortality) was greater than 1000 mg/kg and the NOEC (Tagia sp.; chronic/long-term) was 6.92 mg/kg.

From EPA's ToxValDB 9.5 (doi:10.2903/j.efsa.2013.3373)
